Measurements taken from US7737112B2, “Composition for enzyme inhibition” (Onyx Therapeutics, Inc., priority 2004, dated 2010).

Assays:
Format in all cases: physicochemical
[1] = solubility of peptide epoxy ketones in cyclodextrin formulations
Method: 100 μg/mL peptide (b) was formulated in an aqueous solution containing 130 mg/mL hydroxypropyl beta cyclodextrin (HPBCD) and ca. 0.9% (w/v) NaCl.
2 mg/mL peptide (a) was formulated in an aqueous solution containing 10% (w/v) SBECD and 10 mM citric acid adjusted to pH 3.5 with 0.1 M aqueous sodium hydroxide.
(§1) Appropriate masses of SBECD and citric acid were added to a volume of WFI corresponding to approximately 75% that of the final formulation. This mixture was then stirred at room temperature until complete dissolution of the SBECD and citric acid was effected. An appropriate mass of peptide (a) was then added and the resulting mixture stirred at room temperature until the added peptide (a) was dissolved. A pH electrode was then immersed in the solution and, with rapid stirring, the pH was adjusted to 3.5 by slow addition of 0.1 M sodium hydroxide in WFI; slow addition of the sodium hydroxide solution with adequate stirring was necessary to prevent precipitation of peptide (a). With rapid stirring, the resulting solution was then diluted with WFI to a final peptide (a) concentration of 2.0 mg/mL. This solution was then sterile filtered to yield the final formulation.
Several other final pH values were used for the peptide (a)/SBECD formulations.

[2] = reconstitution of lyophilized (3x) peptide (a)/SBECD formulation
Method: 6 mg/mL peptide (a) was formulated in an aqueous solution containing 30% (w/v) SBECD and 30 mM citric acid adjusted to pH 3.5 with 0.5 M aqueous sodium hydroxide.
as §1, with “70%” for “approximately 75%”, “0.5” for “0.1”, “6.0” for “2.0”
The vials containing product were loaded onto the shelves and the temperature set for 5° C. for 2 hrs. […]
Reconstitution was effected by addition of 9.75 mL of WFI, USP to produce the desired fill volume within the vial of 10.5 mL. […] The pH measured was 3.5±0.1.

[3] = room temperature stability of reconstituted peptide (b)/HPBCD drug product; conditions: 100 μg/mL peptide (b)/HPBCD solid reconstituted in aqueous 0.9% (w/v) NaCl, sterile filtered
Method: The desired quantity of peptide (b) was weighed and dissolved in absolute ethanol at a concentration of 1 mg/mL. For each 1 mg of peptide (b) to be formulated, 1.3 g HPBCD was dissolved in absolute ethanol at a concentration of 10 mg/mL. This ethanol/HPBCD solution was then combined with the ethanol/peptide (b) solution, stirred 5 minutes at room temperature and then evaporated under reduced pressure (rotovapped) to yield a white solid. This solid was placed under high vacuum (ca. 1 mTorr) for 24 hrs, pulverized and then placed under high vacuum (ca. 1 mTorr) for another 4 hrs to yield dry solid. The final formulation was prepared by dissolving this solid drug product to a final concentration of 100 μg peptide (b)/mL solid drug product in ice cold USP grade aqueous 0.9% (w/v) NaCl followed by sterile filtration. Room temperature stability of the reconstituted drug product was ca. 12 hrs.

## CC(C)C[C@H](NC(=O)[C@H](CCc1ccccc1)NC(=O)CN1CCOCC1)C(=O)N[C@@H](Cc1ccccc1)C(=O)N[C@@H](CC(C)C)C(=O)[C@@]1(C)CO1 [peptide (a)]
[1]
  solubility when formulated with a cyclodextrin: significantly enhanced
[2]; lyophilized 6 mg/mL peptide (a), 30% (w/v) SBECD, 30 mM citric acid pH 3.5, 9.75 mL WFI added, fill volume 10.5 mL
  time for dissolution on reconstitution: less than 2 minutes
[2]; lyophilized peptide (a)/SBECD/citrate formulation reconstituted with WFI
  pH measured after reconstitution: 3.5±0.1

## CC(=O)N[C@@H](CCc1ccccc1)C(=O)N[C@@H](CC(C)C)C(=O)N[C@@H](Cc1ccccc1)C(=O)N[C@@H](CC(C)C)C(=O)[C@@]1(C)CO1 [peptide (b)]
[1]; 100 μg/mL in aqueous 130 mg/mL HPBCD, ca. 0.9% (w/v) NaCl, could not be made by simply dissolving
  state of the solution at room temperature: supersaturated (metastable)
[1]
  solubility when formulated with a cyclodextrin: significantly enhanced
[3]
  Room temperature stability of the reconstituted drug product: ca. 12 hrs
